Test system: Candida albicans
Test: in vitro antifungal activity (MIC80), Candida albicans
Type: cell-based
Settings: 80% growth inhibition vs negative control, RPMI 1640, read 24 hrs after application, Table 2, read-out: Antifungal Activity (MIC80) Candida albicans
Protocol: The compounds of the present invention were evaluated for inhibitory activity against yeast molds including Candida albicans, Candida glabrata, Candida krusei, Candida tropicalis, Candida parapsilosis, and Cryptococcus neoformans, and filamentous fungi including Aspergillus fumigatus, Trichophyton mentagrophytes (obtained from KCTC (Korean Collection for Type Cultures), and Trichophyton rubrum (obtained from KCCM (Korean Culture Center of Microorganisms). All the strains, but Trichophyton mentagrophytes and Trichophyton rubrum, were purchased from the ATCC (American Type Culture Collection).
Of the strains used in this test, Candida albicans, Candida glabrata, Candida krusei, Candida tropicalis, Candida parapsilosis, Trichophyton mentagrophytes and Trichophyton rubrum were inoculated into sabouraud dextrose agars (Difco, BD-0109), Cryptococcus neoformans into a yeast mold agar (YM agar, Difco, 271210), and Aspergillus fumigatus into a malt extract agar (Difco, 211220), before incubation at 35° C. for two to ten days.
From the agars on which the yeast molds were grown, single colonies were picked up, and each was sufficiently suspended in 5 mL of already prepared, 0.85% sterile saline. After correction of the absorbance to 0.108 at 530 nm, each of the suspensions was diluted to a ratio of 1:50 in an RPMI (Roswell park memorial institute) 1640 medium and then to a ratio of 1:20 to prepare an inoculum having a cell density of from 1.0×10^3 to 5.0×10^3CFU/mL. The cell density was adjusted into […]˜5.0×10^4 CFU/mL for Aspergillus fumigates and 0.4×10^4˜5.0×10^4 CFU/mL for both Trichophyton mentagrophytes and Trichophyton rubrum.
The antifungal agent samples were prepared by diluting the active compounds in an RPMI 1640 medium to a serial density of from 0.0156 to 32 μg/mL. In this context, dimethylsulfoxide (DMSO) was used as an excipient at a final concentration of 1% (v/v). The serial dilutions were aliquoted at a volume of 0.1 mL and applied to 0.1 mL of the aliquots of each inoculum, followed by incubation.
With the naked eyes, an observation was made of all of the yeast molds, but Cryptococcus neoformans 24 hrs after the application, Cryptococcus neoformans and Aspergillus fumigatus 48 hrs after the application, and Trichophyton mentagrophytes and Trichophyton rubrum five days after the application to examine whether the fungi grew or not. In addition, Alamarblue™ as used to determine the concentrations of the compounds of the present invention at which the growth of the microorganisms was 80% inhibited compared to that of the negative control. All experiments were performed in duplicate for each of the test concentration groups.

Structure (SMILES) | MIC80
C[C@@H](N1CCC(Oc2ccccc2F)CC1)[C@](O)(Cn1cncn1)c1ccc(F)cc1F [Example 3, (2R,3R)-2-(2,4-difluorophenyl)-3-(4-(2-fluorophenoxy)piperidin-1-yl)-1-(1H-1,2,4-triazol-1-yl)butan-2-ol] | ≤ 0.015 µg/mL
C[C@@H](N1CCC(Oc2ccc(C#N)cc2)CC1)[C@](O)(Cn1cncn1)c1ccc(F)cc1F [Example 16, 4-((1-((2R,3R)-3-(2,4-difluorophenyl)-3-hydroxy-4-(1H-1,2,4-triazol-1-yl)butan-2-yl)piperidin-4-yl)oxy)benzonitrile] | ≤ 0.015 µg/mL
C[C@@H](N1CCC(Oc2ccc(F)cn2)CC1)[C@](O)(Cn1cncn1)c1ccc(F)cc1F [Example 25, (2R,3R)-2-(2,4-difluorophenyl)-3-(4-((5-fluoropyridin-2-yl)oxy)piperidin-1-yl)-1-(1H-1,2,4-triazol-1-yl)butan-2-ol] | ≤ 0.015 µg/mL
C[C@@H](N1CCC(Oc2ccc(Cl)cn2)CC1)[C@](O)(Cn1cncn1)c1ccc(F)cc1F [Example 26, (2R,3R)-3-(4-((5-chloropyridin-2-yl)oxy)piperidin-1-yl)-2-(2,4-difluorophenyl)-1-(1H-1,2,4-triazol-1-yl)butan-2-ol] | ≤ 0.015 µg/mL
C[C@@H](N1CCC(Oc2ncc(F)cn2)CC1)[C@](O)(Cn1cncn1)c1ccc(F)cc1F [Example 30, (2R,3R)-2-(2,4-difluorophenyl)-3-(4-((5-fluoropyrimidin-2-yl)oxy)piperidin-1-yl)-1-(1H-1,2,4-triazol-1-yl)butan-2-ol] | ≤ 0.015 µg/mL
C[C@@H](N1CCC(Nc2ccccc2)CC1)[C@](O)(Cn1cncn1)c1ccc(F)cc1F [Example 35, (2R,3R)-2-(2,4-difluorophenyl)-3-(4-(phenylamino)piperidin-1-yl)-1-(1H-1,2,4-triazol-1-yl)butan-2-ol] | ≤ 0.015 µg/mL
C[C@@H](N1CCC(Nc2ccc(F)cc2)CC1)[C@](O)(Cn1cncn1)c1ccc(F)cc1F [Example 38, (2R,3R)-2-(2,4-difluorophenyl)-3-(4-((4-fluorophenyl)amino)piperidin-1-yl)-1-(1H-1,2,4-triazol-1-yl)butan-2-ol] | ≤ 0.015 µg/mL
C[C@@H](N1CCC(Nc2ccc(C(F)(F)F)cc2)CC1)[C@](O)(Cn1cncn1)c1ccc(F)cc1F [Example 46, (2R,3R)-2-(2,4-difluorophenyl)-1-(1H-1,2,4-triazol-1-yl)-3-(4-((4-(trifluoromethyl)phenyl)amino)piperidin-1-yl)butan-2-ol] | ≤ 0.015 µg/mL
C[C@@H](N1CCC(Nc2ccc(C#N)cc2)CC1)[C@](O)(Cn1cncn1)c1ccc(F)cc1F [Example 49, 4-((1-((2R,3R)-3-(2,4-difluorophenyl)-3-hydroxy-4-(1H-1,2,4-triazol-1-yl)butan-2-yl)piperidin-4-yl)amino)benzonitrile] | ≤ 0.015 µg/mL
C[C@@H](N1CCC(Nc2ncc(C(F)(F)F)cc2Cl)CC1)[C@](O)(Cn1cncn1)c1ccc(F)cc1F [Example 60, (2R,3R)-3-(4-((3-chloro-5-(trifluoromethyl)pyridin-2-yl)amino)piperidin-1-yl)-2-(2,4-difluorophenyl)-1-(1H-1,2,4-triazol-1-yl)butan-2-ol] | ≤ 0.015 µg/mL
C[C@@H](N1CCC(Nc2ncccn2)CC1)[C@](O)(Cn1cncn1)c1ccc(F)cc1F [Example 62, (2R,3R)-2-(2,4-difluorophenyl)-3-(4-(pyrimidin-2-ylamino)piperidin-1-yl)-1-(1H-1,2,4-triazol-1-yl)butan-2-ol] | ≤ 0.015 µg/mL
C[C@@H](N1CCC(Nc2ncc(Br)cn2)CC1)[C@](O)(Cn1cncn1)c1ccc(F)cc1F [Example 64, (2R,3R)-3-(4-((5-bromopyrimidin-2-yl)-amino)piperidin-1-yl)-2-(2,4-difluorophenyl)-1-(1H-1,2,4-triazol-1-yl)butan-2-ol] | ≤ 0.015 µg/mL
C[C@@H](N1CCC(N(C)c2ccccc2)CC1)[C@](O)(Cn1cncn1)c1ccc(F)cc1F [Example 67, (2R,3R)-2-(2,4-difluorophenyl)-3-(4-(methyl(phenyl)amino)piperidin-1-yl)-1-(1H-1,2,4-triazol-1-yl)butan-2-ol] | ≤ 0.015 µg/mL
C[C@@H](N1CCC(N(C)c2ccc(F)cc2)CC1)[C@](O)(Cn1cncn1)c1ccc(F)cc1F [Example 70, (2R,3R)-2-(2,4-difluorophenyl)-3-(4-((4-fluorophenyl)(methyl)amino)piperidin-1-yl)-1-(1H-1,2,4-triazol-1-yl)butan-2-ol] | ≤ 0.015 µg/mL
C[C@@H](N1CCC(N(C)c2ccc(Cl)cc2)CC1)[C@](O)(Cn1cncn1)c1ccc(F)cc1F [Example 73, (2R,3R)-3-(4-((4-chlorophenyl)(methyl)amino)piperidin-1-yl)-2-(2,4-difluorophenyl)-1-(1H-1,2,4-triazol-1-yl)butan-2-ol] | ≤ 0.015 µg/mL
C[C@@H](N1CCC(N(C)c2ccc(C(F)(F)F)cc2)CC1)[C@](O)(Cn1cncn1)c1ccc(F)cc1F [Example 79, (2R,3R)-2-(2,4-difluorophenyl)-3-(4-(methyl(4-(trifluoromethyl)phenyl)amino)piperidin-1-yl)-1-(1H-1,2,4-triazol-1-yl)butan-2-ol] | ≤ 0.015 µg/mL
C[C@@H](N1CCC(N(C)c2ccc(C#N)cc2)CC1)[C@](O)(Cn1cncn1)c1ccc(F)cc1F [Example 82, 4-((1-((2R,3R)-3-(2,4-difluorophenyl)-3-hydroxy-4-(1H-1,2,4-triazol-1-yl)butan-2-yl)piperidin-4-yl)(methyl)amino)benzonitrile] | ≤ 0.015 µg/mL
C[C@@H](OC1CCN(c2ncccn2)CC1)[C@](O)(Cn1cncn1)c1ccc(F)cc1F [Example 89, (2R,3R)-2-(2,4-difluorophenyl)-3-((1-(pyrimidin-2-yl)piperidin-4-yl)oxy)-1-(1H-1,2,4-triazol-1-yl)butan-2-ol] | ≤ 0.015 µg/mL
C[C@@H](OC1CCN(c2ccccc2)CC1)[C@](O)(Cn1cncn1)c1ccc(F)cc1F [Example 90, (2R,3R)-2-(2,4-difluorophenyl)-3-((1-phenylpiperidin-4-yl)oxy)-1-(1H-1,2,4-triazol-1-yl)butan-2-ol] | ≤ 0.015 µg/mL
C[C@@H](OC1CCN(c2ccc(F)cc2)CC1)[C@](O)(Cn1cncn1)c1ccc(F)cc1F [Example 93, (2R,3R)-2-(2,4-difluorophenyl)-3-((1-(4-fluorophenyl)piperidin-4-yl)oxy)-1-(1H-1,2,4-triazol-1-yl)butan-2-ol] | ≤ 0.015 µg/mL
C[C@@H](OC1CCN(c2ccc(Cl)cc2)CC1)[C@](O)(Cn1cncn1)c1ccc(F)cc1F [Example 96, (2R,3R)-3-((1-(4-chlorophenyl)piperidin-4-yl)oxy)-2-(2,4-difluorophenyl)-1-(1H-1,2,4-triazol-1-yl)butan-2-ol] | ≤ 0.015 µg/mL
C[C@@H](OC1CCN(c2ccc(C(F)(F)F)cc2)CC1)[C@](O)(Cn1cncn1)c1ccc(F)cc1F [Example 102, (2R,3R)-2-(2,4-difluorophenyl)-1-(1H-1,2,4-triazol-1-yl)-3-((1-(4-(trifluoromethyl)phenyl)piperidin-4-yl)oxy)butan-2-ol] | ≤ 0.015 µg/mL
C[C@@H](OC1CCN(c2ccc(C#N)cc2)CC1)[C@](O)(Cn1cncn1)c1ccc(F)cc1F [Example 105, 4-(4-(((2R,3R)-3-(2,4-difluorophenyl)-3-hydroxy-4-(1H-1,2,4-triazol-1-yl)butan-2-yl)oxy)piperidin-1-yl)benzonitrile] | ≤ 0.015 µg/mL
C[C@@H](OC1CCN(c2ccc(F)cn2)CC1)[C@](O)(Cn1cncn1)c1ccc(F)cc1F [Example 114, (2R,3R)-2-(2,4-difluorophenyl)-3-((1-(5-fluoropyridin-2-yl)piperidin-4-yl)oxy)-1-(1H-1,2,4-triazol-1-yl)butan-2-ol] | ≤ 0.015 µg/mL
C[C@@H](OC1CCN(c2ccc(Cl)cn2)CC1)[C@](O)(Cn1cncn1)c1ccc(F)cc1F [Example 115, (2R,3R)-3-((1-(5-chloropyridin-2-yl)piperidin-4-yl)oxy)-2-(2,4-difluorophenyl)-1-(1H-1,2,4-triazol-1-yl)butan-2-ol] | ≤ 0.015 µg/mL
Cc1cc(C(F)(F)F)cnc1N1CCC(O[C@H](C)[C@](O)(Cn2cncn2)c2ccc(F)cc2F)CC1 [Example 116, (2R,3R)-2-(2,4-difluorophenyl)-3-((1-(3-methyl-5-(trifluoromethyl)pyridin-2-yl)piperidin-4-yl)oxy)-1-(1H-1,2,4-triazol-1-yl)butan-2-ol] | ≤ 0.015 µg/mL
C[C@@H](OC1CCN(c2ncc(F)cn2)CC1)[C@](O)(Cn1cncn1)c1ccc(F)cc1F [Example 118, (2R,3R)-2-(2,4-difluorophenyl)-3-((1-(5-fluoropyrimidin-2-yl)piperidin-4-yl)oxy)-1-(1H-1,2,4-triazol-1-yl)butan-2-ol] | ≤ 0.015 µg/mL

Source: US8940768B2, “Antifungal triazole derivatives” (Daewoong Pharmaceutical Co., Ltd., priority 2010, dated 2015)
